Test results from patent publication US20230210831A1, “CHRONIC KIDNEY DISEASE TREATMENT OR PREVENTION METHOD” (Japan Tobacco Inc., priority 2019, published 2023).
Where “and” joins values, the source holds several entries; their conditions need not be identical. Equal values may be shown once.

Legend:
Type in all cases: cell-based
[1] = test system: Salmonella typhimurium TA98; assay: Ames test (reverse mutation test), TA98
Experimental: (§1) The solvent used herein was dimethyl sulfoxide (DMSO, 100 µL/plate).
(§2) The mixtures were preincubated at 37° C. for 20 minutes while shaking. […] Two plates per treatment were used.

[2] = test system: Salmonella typhimurium TA1537; assay: Ames test (reverse mutation test), TA1537
Experimental: as §1, §2

[3] = test system: Salmonella typhimurium TA100; assay: Ames test (reverse mutation test), TA100
Experimental: as §1, §2

[4] = test system: Salmonella typhimurium TA1535; assay: Ames test (reverse mutation test), TA1535
Experimental: as §1, §2

Escherichia coli WP2uvrA = assay: Ames test (reverse mutation test), WP2uvrA; settings: WP2uvrA
Experimental: as §1, §2

[5] = test system: Salmonella typhimurium (TA98, TA1537, TA100, and TA1535) and Escherichia coli (WP2uvrA); assay: Ames test (reverse mutation test), overall conclusion over all tester strains; settings: all bacterial tester strains, with and/or without S9 mix
Experimental: as §1, §2
Details are explained as follows.

## CC(C)(C)Oc1cc(F)cc(-c2cc(N)nn2C(F)(F)F)c1 [Metabolite 1]
[1]; TA98, +S9 mix, 2.3 µg/plate
  Number of revertant colonies: 35
[1]; TA98, +S9 mix, 6.9 µg/plate
  Number of revertant colonies: 31
[1]; TA98, +S9 mix, 21 µg/plate
  Number of revertant colonies: 35
[1]; TA98, +S9 mix, 62 µg/plate
  Number of revertant colonies: 28
[1]; TA98, +S9 mix, 185 µg/plate
  Number of revertant colonies: 16
[1]; TA98, +S9 mix, 556 µg/plate
  Number of revertant colonies: 15
[1]; TA98, +S9 mix, 1667 µg/plate
  Number of revertant colonies: 13
[1]; TA98, +S9 mix, 5000 µg/plate
  Number of revertant colonies: 13
[1]; TA98, -S9 mix, 2.3 µg/plate
  Number of revertant colonies: 14
[1]; TA98, -S9 mix, 6.9 µg/plate
  Number of revertant colonies: 16
[1]; TA98, -S9 mix, 21 µg/plate
  Number of revertant colonies: 14
[1]; TA98, -S9 mix, 62 µg/plate
  Number of revertant colonies: 21
[1]; TA98, -S9 mix, 185 µg/plate
  Number of revertant colonies: 9
[1]; TA98, -S9 mix, 556 µg/plate
  Number of revertant colonies: 0
[1]; TA98, -S9 mix, 1667 µg/plate
  Number of revertant colonies: 0
[1]; TA98, -S9 mix, 5000 µg/plate
  Number of revertant colonies: 0
[2]; TA1537, +S9 mix, 2.3 µg/plate
  Number of revertant colonies: 11
[2]; TA1537, +S9 mix, 6.9 µg/plate
  Number of revertant colonies: 10
[2]; TA1537, +S9 mix, 21 µg/plate
  Number of revertant colonies: 9
[2]; TA1537, +S9 mix, 62 µg/plate
  Number of revertant colonies: 6
[2]; TA1537, +S9 mix, 185 µg/plate
  Number of revertant colonies: 2
[2]; TA1537, +S9 mix, 556 µg/plate
  Number of revertant colonies: 0
[2]; TA1537, +S9 mix, 1667 µg/plate
  Number of revertant colonies: 0
[2]; TA1537, +S9 mix, 5000 µg/plate
  Number of revertant colonies: 0
[2]; TA1537, -S9 mix, 2.3 µg/plate
  Number of revertant colonies: 7
[2]; TA1537, -S9 mix, 6.9 µg/plate
  Number of revertant colonies: 10
[2]; TA1537, -S9 mix, 21 µg/plate
  Number of revertant colonies: 9
[2]; TA1537, -S9 mix, 62 µg/plate
  Number of revertant colonies: 9
[2]; TA1537, -S9 mix, 185 µg/plate
  Number of revertant colonies: 0
[2]; TA1537, -S9 mix, 556 µg/plate
  Number of revertant colonies: 0
[2]; TA1537, -S9 mix, 1667 µg/plate
  Number of revertant colonies: 0
[2]; TA1537, -S9 mix, 5000 µg/plate
  Number of revertant colonies: 0
[3]; TA100, +S9 mix, 2.3 µg/plate
  Number of revertant colonies: 120
[3]; TA100, +S9 mix, 6.9 µg/plate
  Number of revertant colonies: 119
[3]; TA100, +S9 mix, 21 µg/plate
  Number of revertant colonies: 117
[3]; TA100, +S9 mix, 62 µg/plate
  Number of revertant colonies: 104
[3]; TA100, +S9 mix, 185 µg/plate
  Number of revertant colonies: 78
[3]; TA100, +S9 mix, 556 µg/plate
  Number of revertant colonies: 59
[3]; TA100, +S9 mix, 1667 µg/plate
  Number of revertant colonies: 50
[3]; TA100, +S9 mix, 5000 µg/plate
  Number of revertant colonies: 52
[3]; TA100, -S9 mix, 2.3 µg/plate
  Number of revertant colonies: 99
[3]; TA100, -S9 mix, 6.9 µg/plate
  Number of revertant colonies: 113
[3]; TA100, -S9 mix, 21 µg/plate
  Number of revertant colonies: 124
[3]; TA100, -S9 mix, 62 µg/plate
  Number of revertant colonies: 88
[3]; TA100, -S9 mix, 185 µg/plate
  Number of revertant colonies: 38
[3]; TA100, -S9 mix, 556 µg/plate
  Number of revertant colonies: 0
[3]; TA100, -S9 mix, 1667 µg/plate
  Number of revertant colonies: 0
[3]; TA100, -S9 mix, 5000 µg/plate
  Number of revertant colonies: 0
[4]; TA1535, +S9 mix, 1667 µg/plate
  Number of revertant colonies: 4
[4]; TA1535, -S9 mix, 62 µg/plate
  Number of revertant colonies: 8
[4]; TA1535, -S9 mix, 185 µg/plate
  Number of revertant colonies: 0
[4]; TA1535, -S9 mix, 556 µg/plate
  Number of revertant colonies: 0
[4]; TA1535, -S9 mix, 1667 µg/plate
  Number of revertant colonies: 0
Escherichia coli WP2uvrA; +S9 mix, 2.3 µg/plate
  Number of revertant colonies: 31
Escherichia coli WP2uvrA; +S9 mix, 6.9 µg/plate
  Number of revertant colonies: 31
Escherichia coli WP2uvrA; +S9 mix, 12 µg/plate
  Number of revertant colonies: 28
Escherichia coli WP2uvrA; +S9 mix, 21 µg/plate
  Number of revertant colonies: 32 and 25
Escherichia coli WP2uvrA; +S9 mix, 36 µg/plate
  Number of revertant colonies: 34
Escherichia coli WP2uvrA; +S9 mix, 62 µg/plate
  Number of revertant colonies: 40 and 35
Escherichia coli WP2uvrA; +S9 mix, 185 µg/plate
  Number of revertant colonies: 16 and 9
Escherichia coli WP2uvrA; +S9 mix, 556 µg/plate
  Number of revertant colonies: 18
Escherichia coli WP2uvrA; +S9 mix, 1667 µg/plate
  Number of revertant colonies: 9
Escherichia coli WP2uvrA; +S9 mix, 5000 µg/plate
  Number of revertant colonies: 0
Escherichia coli WP2uvrA; -S9 mix, 2.3 µg/plate
  Number of revertant colonies: 32
Escherichia coli WP2uvrA; -S9 mix, 6.9 µg/plate
  Number of revertant colonies: 27
Escherichia coli WP2uvrA; -S9 mix, 21 µg/plate
  Number of revertant colonies: 31
Escherichia coli WP2uvrA; -S9 mix, 62 µg/plate
  Number of revertant colonies: 24
Escherichia coli WP2uvrA; -S9 mix, 185 µg/plate
  Number of revertant colonies: 15
Escherichia coli WP2uvrA; -S9 mix, 556 µg/plate
  Number of revertant colonies: 8
Escherichia coli WP2uvrA; -S9 mix, 1667 µg/plate
  Number of revertant colonies: 5
Escherichia coli WP2uvrA; -S9 mix, 5000 µg/plate
  Number of revertant colonies: 0
[5]
  potential to induce reverse mutations: did not show potential to induce reverse mutations

## Nc1cc(-c2cc(F)cc(OC(F)(F)F)c2)n(-c2cncc(C(F)(F)F)c2)n1 [Metabolite 5]
[1]; TA98, +S9 mix, 6.9 µg/plate
  Number of revertant colonies: 36
[1]; TA98, +S9 mix, 21 µg/plate
  Number of revertant colonies: 38
[1]; TA98, +S9 mix, 62 µg/plate
  Number of revertant colonies: 38
[1]; TA98, +S9 mix, 185 µg/plate
  Number of revertant colonies: 33
[1]; TA98, +S9 mix, 556 µg/plate
  Number of revertant colonies: 27
[1]; TA98, +S9 mix, 1667 µg/plate
  Number of revertant colonies: 25
[1]; TA98, +S9 mix, 5000 µg/plate
  Number of revertant colonies: 17
[1]; TA98, -S9 mix, 6.9 µg/plate
  Number of revertant colonies: 29
[1]; TA98, -S9 mix, 21 µg/plate
  Number of revertant colonies: 28
[1]; TA98, -S9 mix, 62 µg/plate
  Number of revertant colonies: 29
[1]; TA98, -S9 mix, 185 µg/plate
  Number of revertant colonies: 26
[1]; TA98, -S9 mix, 556 µg/plate
  Number of revertant colonies: 24
[1]; TA98, -S9 mix, 1667 µg/plate
  Number of revertant colonies: 18
[1]; TA98, -S9 mix, 5000 µg/plate
  Number of revertant colonies: 14
[2]; TA1537, +S9 mix, 6.9 µg/plate
  Number of revertant colonies: 13
[2]; TA1537, +S9 mix, 21 µg/plate
  Number of revertant colonies: 11
[2]; TA1537, +S9 mix, 62 µg/plate
  Number of revertant colonies: 12
[2]; TA1537, +S9 mix, 185 µg/plate
  Number of revertant colonies: 12
[2]; TA1537, +S9 mix, 556 µg/plate
  Number of revertant colonies: 8
[2]; TA1537, +S9 mix, 1667 µg/plate
  Number of revertant colonies: 3
[2]; TA1537, +S9 mix, 5000 µg/plate
  Number of revertant colonies: 1
[2]; TA1537, -S9 mix, 6.9 µg/plate
  Number of revertant colonies: 8
[2]; TA1537, -S9 mix, 21 µg/plate
  Number of revertant colonies: 7
[2]; TA1537, -S9 mix, 62 µg/plate
  Number of revertant colonies: 8
[2]; TA1537, -S9 mix, 185 µg/plate
  Number of revertant colonies: 7
[2]; TA1537, -S9 mix, 556 µg/plate
  Number of revertant colonies: 2
[2]; TA1537, -S9 mix, 1667 µg/plate
  Number of revertant colonies: 3
[2]; TA1537, -S9 mix, 5000 µg/plate
  Number of revertant colonies: 2
[3]; TA100, +S9 mix, 6.9 µg/plate
  Number of revertant colonies: 134
[3]; TA100, +S9 mix, 21 µg/plate
  Number of revertant colonies: 123
[3]; TA100, +S9 mix, 62 µg/plate
  Number of revertant colonies: 108
[3]; TA100, +S9 mix, 185 µg/plate
  Number of revertant colonies: 103
[3]; TA100, +S9 mix, 556 µg/plate
  Number of revertant colonies: 99
[3]; TA100, +S9 mix, 1667 µg/plate
  Number of revertant colonies: 67
[3]; TA100, +S9 mix, 5000 µg/plate
  Number of revertant colonies: 43
[3]; TA100, -S9 mix, 6.9 µg/plate
  Number of revertant colonies: 88
[3]; TA100, -S9 mix, 21 µg/plate
  Number of revertant colonies: 91
[3]; TA100, -S9 mix, 62 µg/plate
  Number of revertant colonies: 93
[3]; TA100, -S9 mix, 185 µg/plate
  Number of revertant colonies: 92
[3]; TA100, -S9 mix, 556 µg/plate
  Number of revertant colonies: 59
[3]; TA100, -S9 mix, 1667 µg/plate
  Number of revertant colonies: 29
[3]; TA100, -S9 mix, 5000 µg/plate
  Number of revertant colonies: 12
[4]; TA1535, +S9 mix, 62 µg/plate
  Number of revertant colonies: 10
[4]; TA1535, -S9 mix, 5000 µg/plate
  Number of revertant colonies: 4
Escherichia coli WP2uvrA; +S9 mix, 6.9 µg/plate
  Number of revertant colonies: 22
Escherichia coli WP2uvrA; +S9 mix, 21 µg/plate
  Number of revertant colonies: 22
Escherichia coli WP2uvrA; +S9 mix, 62 µg/plate
  Number of revertant colonies: 21
Escherichia coli WP2uvrA; +S9 mix, 185 µg/plate
  Number of revertant colonies: 21
Escherichia coli WP2uvrA; +S9 mix, 556 µg/plate
  Number of revertant colonies: 18
Escherichia coli WP2uvrA; +S9 mix, 1667 µg/plate
  Number of revertant colonies: 21
Escherichia coli WP2uvrA; +S9 mix, 5000 µg/plate
  Number of revertant colonies: 19
Escherichia coli WP2uvrA; -S9 mix, 6.9 µg/plate
  Number of revertant colonies: 23
Escherichia coli WP2uvrA; -S9 mix, 21 µg/plate
  Number of revertant colonies: 15
Escherichia coli WP2uvrA; -S9 mix, 62 µg/plate
  Number of revertant colonies: 23
Escherichia coli WP2uvrA; -S9 mix, 185 µg/plate
  Number of revertant colonies: 20
Escherichia coli WP2uvrA; -S9 mix, 556 µg/plate
  Number of revertant colonies: 22
Escherichia coli WP2uvrA; -S9 mix, 1667 µg/plate
  Number of revertant colonies: 19
Escherichia coli WP2uvrA; -S9 mix, 5000 µg/plate
  Number of revertant colonies: 14
[5]
  potential to induce reverse mutations: did not show potential to induce reverse mutations
